From patent publication US8796415B2, “Inhibitors of guanine exchange factors and their use as anticancer drugs” (Centre National de la Recherche Scientifique, priority 2009, dated 2014)
One block for each substance: values may come before it. Ends that are not written are not given here.

Experiments:
Trio DH2-PH2 = target: T1, Trio DH2-PH2 (Homo sapiens, UniProt O75962); assay: Yeast two-hybrid screening for binding to Trio DH2-PH2; conditions: 3-AT 80-120 mM
T1 construct: made in house
Excerpt: The inventors next reasoned that peptides that would bind stronger to the GEF domain may also be better at inhibiting its activity. The inventors thus generated a library of peptide aptamers derived from TRIPα by random mutagenesis, which the inventors screened for GEF binding in a yeast two-hybrid assay. The inventors chose a system in which the threshold of interaction detection can be modulated by the concentration of the 3-aminotriazole (3-AT) drug (Sardet et al., 1995). Since Tgat is toxic in yeast, the inventors used Trio DH2-PH2 to screen this TRIP-like peptide library. […] These clones were then produced as GST fusions and analyzed for their inhibition of Trio DH2-PH2, using the [3H]-GDP dissociation assay.
An aptamer library derived from TRIPα was created by PCR-based random mutagenesis of TRIPα inserted into the yeast two-hybrid vector pPC86. Sequencing of a statistically representative number of clones yielded a mutation rate of ˜3 mutations/clone. 6×10^5 independent clones were screened for interactors, using Trio DH2-PH2 (in the pPC97 vector) as a bait, in the MAV 103 yeast strain, on high concentrations of 3-AT (3-amino-triazol, Sigma) (80-120 mM). Selected peptides were then produced as GST-fusions and analyzed for their inhibition of Trio DH2-PH2 using the [3H]-GDP dissociation assay.

p115RhoGEF = target: T2, p115RhoGEF (Homo sapiens, UniProt Q92888); conditions: shown previously (Schmidt et al., 2002 and unpublished results); cited from earlier work
T2 construct: GST (N); made in house; host or cells: baculovirus system
T2 sequence (Q92888 1-912): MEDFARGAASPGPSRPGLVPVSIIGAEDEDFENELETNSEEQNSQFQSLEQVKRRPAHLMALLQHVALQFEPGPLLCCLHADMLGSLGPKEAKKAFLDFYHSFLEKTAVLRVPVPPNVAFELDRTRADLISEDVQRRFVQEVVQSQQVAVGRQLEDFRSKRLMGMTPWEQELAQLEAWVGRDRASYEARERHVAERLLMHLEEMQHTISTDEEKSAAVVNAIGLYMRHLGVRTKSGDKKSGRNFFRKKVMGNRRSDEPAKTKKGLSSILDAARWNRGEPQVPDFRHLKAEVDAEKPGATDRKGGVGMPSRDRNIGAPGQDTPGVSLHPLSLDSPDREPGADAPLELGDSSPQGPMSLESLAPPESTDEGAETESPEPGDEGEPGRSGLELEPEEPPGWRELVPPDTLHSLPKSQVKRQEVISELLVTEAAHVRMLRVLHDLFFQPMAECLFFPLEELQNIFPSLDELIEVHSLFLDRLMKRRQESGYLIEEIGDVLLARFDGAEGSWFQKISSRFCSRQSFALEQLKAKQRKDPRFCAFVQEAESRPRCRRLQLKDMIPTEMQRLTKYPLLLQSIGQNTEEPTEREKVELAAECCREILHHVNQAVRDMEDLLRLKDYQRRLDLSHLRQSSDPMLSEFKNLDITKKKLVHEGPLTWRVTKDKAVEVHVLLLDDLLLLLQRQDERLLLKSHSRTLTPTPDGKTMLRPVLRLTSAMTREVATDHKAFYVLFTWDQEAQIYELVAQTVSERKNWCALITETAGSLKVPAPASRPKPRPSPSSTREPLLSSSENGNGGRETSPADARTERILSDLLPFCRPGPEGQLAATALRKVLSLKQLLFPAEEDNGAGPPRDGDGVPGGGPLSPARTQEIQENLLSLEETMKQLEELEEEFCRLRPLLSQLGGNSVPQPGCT

Dbl = conditions: shown previously (Schmidt et al., 2002 and unpublished results); cited from earlier work
PC12 cells = conditions: Schmidt et al., 2002; cited from earlier work
[1] = tested on: Tgat-expressing NIH3T3 cells; assay: Focus formation assay of Tgat-expressing NIH3T3 cells; format: cell-based; conditions: GST-tagged peptide stably co-expressed; after 3 weeks of culture
Protocol: FIG. 9A represents the focus formation assay of NIH3T3 cells, stably expressing GFP or GFP-Tgat, together with GST or GST-TRIPE32G.
FIG. 9B represents the quantification of three independent focus formation assays. The number of foci formed by Tgat/GST expressing cells was set to 100%.
NIH3T3 cells were maintained as described previously (Sirvent et al., 2007). Transient transfection experiments were performed using the Jet PEI reagent, according to the manufacturer's protocol (QBiogene Inc.). NIH3T3 cell lines stably expressing GFP-Tgat, GFP-TgatL190E, or GFP-Trio, with or without the GST-TRIP peptides, were generated as follows: the indicated retroviral constructs were transfected into BOSC packaging cells, using the Lipofectamine reagent (Invitrogen Inc.). Forty-eight hours after transfection, virus containing supernatants were collected and used to infect NIH3T3 cells. Infected cells were selected with 6 μg/mL puromycin and/or 1 mg/mL G418 and stable transfectants were pooled after selection. Tgat or TRIP mRNA levels in the different cell lines were monitored by RTPCR, and protein expression levels by Western blot analysis using a polyclonal anti-GFP antibody (Toney Pines Laboratories). […] After staining with Crystal Violet (1%), plates were photographed and foci were scored using the Metamorph software. […]

[2] = tested on: Tgat-expressing NIH3T3 cells; assay: Cell proliferation or apoptosis (data not shown); format: cell-based
[3] = tested on: NIH3T3 cells stably expressing GFP-Tgat; assay: Tumor formation in Balb/c nude mice grafted with NIH3T3 cells expressing Tgat; format: in vivo
Protocol: FIG. 10A represents tumor formation in Balb/c nude mice. NIH3T3 cells stably expressing GFP-Tgat/GST or GFP-Tgat/GSTTRIP E32G were injected subcutaneously into the flanks of Balb/c nude mice and tumor volume was measured every week. The graph is representative of the three independent assays that were performed.
FIG. 10B represents the tumor weights (in grams) after the experiments. Ten weeks post graft, mice were euthanised, tumors were excised and weighed, and the mean tumor weight was plotted on the graph. (*) A paired Student's t-test was performed, matching the samples for each mouse, and the P value was 0.019. Error bars represent standard deviation in all graphs.
Female Balb/c nu/nu mice were purchased from Charles River France and used at 6-8 weeks of age. 12 Balb/c nu/nu mice were subcutaneously grafted with 2×10^6 cells of each cell line on both sides (Tgat on the left and Tgat+TRIPE32G on the right flank of the leg). The appearance of tumors was scored visually every week. 10 weeks post graft, mice were euthanized and tumors excised and weighed. mRNA and protein levels in the tumors were verified by RT-PCR and Western blot (data not shown).

Dbl, sequence (P10911 495-809 limits assumed): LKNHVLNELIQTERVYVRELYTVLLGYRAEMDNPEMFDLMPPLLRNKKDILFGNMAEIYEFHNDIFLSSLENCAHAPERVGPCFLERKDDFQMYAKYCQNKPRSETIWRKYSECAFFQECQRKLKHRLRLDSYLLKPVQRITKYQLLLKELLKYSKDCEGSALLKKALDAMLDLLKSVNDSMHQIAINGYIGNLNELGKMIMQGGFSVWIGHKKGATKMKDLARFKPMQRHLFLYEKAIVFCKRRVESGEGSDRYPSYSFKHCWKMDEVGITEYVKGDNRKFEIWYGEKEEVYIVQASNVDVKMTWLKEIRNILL

- interaction with Trio DH2-PH2 in yeast two-hybrid assay (Trio DH2-PH2): no interaction
Substance: AREGADGAICGYNLATLVMLGPSERVFCPLCEPCSSDIYELM [TRIPα]
- activity on p115RhoGEF (p115RhoGEF): not active
- activity on Dbl (Dbl): not active
- neurite retraction phenotype induced by Trio DH2-PH2 (PC12 cells): reverting the neurite retraction phenotype

Substance: GST-TRIPE32G (AREGADGAICGYNLATLVMLGPSERVFCPLCGPCSSDIYELM; cysteine pairing not given here; also: GST fusion)
- foci in Tgat expressing cells [1]: severely reduced
- non-specific effect on cell proliferation or apoptosis [2]: not due to a non-specific effect of TRIPE32G on cell proliferation or apoptosis
- number of mice with tumors ([3]; 12 mice grafted subcutaneously, peptide co-expressed with Tgat, Tgat alone ten out of twelve): seven
- delay in the formation of tumors ([3]; peptide co-expressed with Tgat, versus Tgat alone): about three
- weight of the tumors ([3]; ten weeks post graft, paired Student's t-test P value 0.019): significantly reduced
